“And” between values parts separate entries of the source, which are not always exact repeats. Equal values may be shown once. Read-outs that look alike come from different tables or passages of the source.

Data set [1] concerns VSV. Description: microbe, parasite or virus in culture. To be noted: for Reduction in VSV titer: 10 mM sodium taurocholate, human plasma; for log reduction at 4000 µM / log reduction at 7500 µM / log reduction at 15000 µM: Vesicular stomatitis virus, read-out: Reduction in VSV titer. The class given is cell-based, vesicular stomatitis virus.
For data set [2], the system named is VSV. Description: microbe, parasite or virus in culture. The class given is cell-based, vesicular stomatitis virus. To be noted: Vesicular stomatitis virus.
For another data set, the system named is HSV-1. The data set is described as follows: microbe, parasite or virus in culture. The class given is cell-based, herpes simplex virus type 1 strain MacIntyre. The settings on record: Human alphaherpesvirus 1, 0.5 h; 0.5 mg/ml, 37° C., 30 min; read-out: Reduction of virus titer, HSV-1.
The next data set deals with Total White Blood Cells. Description: Stability of white blood cells in whole human blood to added lipid. In kind it is cell-based. Set-up: unit not given here. The settings on record: 15 mM, control 6.4. From the text:
Further testing has shown the effect of monoglyceride esters and ether on the total white blood cell concentration in whole human blood.

Data set [3] deals with VSV. Description: microbe, parasite or virus in culture. The class given is cell-based, vesicular stomatitis virus strain Indiana. To be noted: for minimal effective concentration: read-out: Lowest concentration causing ≥3.0 log10 reduction in virus titer.
The subject of another data set is Group B streptococcus. The data set is described as follows: Inactivation of bacteria by monoglycerides, Group B streptococcus. The class given is cell-based. To be noted: 2 mg/ml, read-out: Reduction of bacterial concentration, Group B streptococcus.
The subject of a further data set is Red Blood Cells. The data set is described as follows: Stability of red blood cells in whole human blood to added monoglyceride. The class given is cell-based. To be noted: 3 mg/ml. From the text:
Effect of Added Monoglyceride on RBCs in Human Blood.

The next data set is described as follows: Solubility. The class given is physicochemical. To be noted: vs 1-monodecanoyl-rac-glycerol.
Where [4] appears, read: read-out: Reduction in VSV Titer, 7.5 mM, 0 mM sodium taurocholate, human serum.
Where [5] appears, read: read-out: Reduction in VSV Titer, 7.5 mM, 2 mM sodium taurocholate, human serum.
Setting [6] is: read-out: Reduction in VSV Titer, 7.5 mM, 4 mM sodium taurocholate, human serum.
[7] abbreviates: read-out: Reduction in VSV Titer, 7.5 mM, 6 mM sodium taurocholate, human serum.
Where [8] appears, read: read-out: Reduction in VSV Titer, 7.5 mM, 8 mM sodium taurocholate, human serum.
Setting [9] is: read-out: Reduction in VSV Titer, 7.5 mM, 10 mM sodium taurocholate, human serum.
The mark [10] stands for this setting: read-out: Reduction in VSV Titer, 7.5 mM, 12 mM sodium taurocholate, human serum.
[11] abbreviates: Vesicular stomatitis virus, 0.5 h.
Where [12] appears, read: Vesicular stomatitis virus, 0.5 h, read-out: Reduction of virus titer, VSV.

For `CCCCCCCCCC(=O)OCC(O)CO` (racemic) [Monocaprin (10:0), 1-Monodecanoyl-rac-glycerol], the “Reduction in VSV titer” value in the data set with VSV [1] (4 mM) is 1.0 log10; in the data set on VSV [1] (7.5 mM) it was at least 4.0 log10; in the data set on VSV [1] (15 mM), at least 4.0 log10. The log reduction at 4000 µM with VSV [1] is 0. Moreover, the log reduction at 7500 µM is 1 in the data set on VSV [1]; 1 in the data set on VSV [2] (setting [4]); at least 5 in the data set on VSV [2] (setting [5]); at least 5 with VSV [2] (setting [6]); at least 5 with VSV [2] (setting [7]); at least 5 in the data set on VSV [2] (setting [8]). Besides, the log reduction at 7500 µM in the data set on VSV [2] (setting [9]) and with VSV [2] (setting [10]) was at least 5 each time. Besides, the log reduction at 15000 µM in the data set on VSV [1] was at least 4. The values for the log reduction at 500 µg/mL in the data set with HSV-1 and in the data set on VSV [3] (setting [12]) were at least 3.7 and at least 4, respectively. Besides, in the data set with Total White Blood Cells, the “Total White Blood Cells” value is recorded as 0.7. In the data set on VSV [3] (setting [11]), the minimal effective concentration is 500 µg/mL and 2000 µM. Further, in the data set on VSV [3] (monoglyceride vs free acid), the “active concentration relative to corresponding free acids” value was “ten times lower”. Also, the log reduction at 2000 µg/mL in the data set on Group B streptococcus is 4.5. Also, in the data set on Red Blood Cells, the “lysis of RBCs in whole blood” value is reported as “does not lyse RBCs in whole blood”.

Turning to `CCCCCCCC(=O)OCC(O)CO` (racemic) [Monocaprylin (8:0), 1-Monocapryloyl-rac-glycerol], the “Reduction in VSV titer” value in the data set with VSV [1] (4 mM) is reported as 2.0 log10; with VSV [1] (7.5 mM), at least 4.0 log10; in the data set on VSV [1] (15 mM) it was at least 4.0 log10. Further, the log reduction at 4000 µM with VSV [1] worked out at 0. Further, the log reduction at 7500 µM in the data set on VSV [1] was 1; in the data set on VSV [2] (setting [4]) it was at least 1; in the data set with VSV [2] (setting [5]), at least 3; in the data set with VSV [2] (setting [6]), 4; in the data set on VSV [2] (setting [7]), at least 5; in the data set on VSV [2] (setting [8]), at least 5. For the same compound, the log reduction at 7500 µM in the data set on VSV [2] (setting [9]) and in the data set on VSV [2] (setting [10]) was at least 5 throughout. Also, the log reduction at 15000 µM in the data set with VSV [1] was 2. For the same compound, the “Total White Blood Cells” value with Total White Blood Cells came out at 2.4. In the data set “Solubility”, the solubility in words entry is given as “more soluble”. Moreover, in the data set on VSV [3] (setting [11]), the minimal effective concentration is 2000 µg/mL and 9000 µM. Moreover, the log reduction at 2000 µg/mL with VSV [3] (setting [12]) was at least 4.
